From patent publication US20060281670A1, “Compositions and methods for modulating angiogenesis” (Wisconsin Alumni Research Foundation (WARF), priority 2005, published 2006)

Assays:
[1] = test system: Flt-1 and Flk-1 (VEGF receptors) in YSECs; assay: Gene expression analysis by real-time RT-PCR; format: cell-based, mouse; conditions: for rescue of Flt-1 and Flk-1 expression and cell signaling: NK-B/IBMX-treated YSECs, growth factor 100 ng/ml
Procedure: Real-time RT-PCR was conducted Total RNA was purified with Trizol (Invitrogen). cDNA was prepared by annealing RNA (1 μg) with 250 ng of a 1:5 mixture of random and oligo(dT) primers (Promega) at 68° C. for 10 min, followed by incubation with Moloney Murine Leukemia Virus reverse transcriptase (Invitrogen) with 10 mM dithiothreitol, RNasin (Promega), and 0.5 mM dNTPs at 42° C. for 1 h. Reactions were diluted to a final volume of 100 μl and subjected to heat-inactivation at 98° C. for 10 min. Reactions (25 μl) contained 2.5 μl of cDNA, 12.5 μl of SYBR Green Master Mix (Applied Biosystems), and appropriate primers. Product accumulation was monitored by SYBR Green fluorescence. Control reactions lacking RT yielded little or no signals. The relative expression levels were determined from a standard curve of serial dilutions of cDNA samples from untreated control cells, and measurements were conducted under conditions of linearity.
Real time RT-PCR primers were designed using PRIMER EXPRESS 1.0 (PE Applied Biosystems) to amplify 50-150 bp amplicons and were based on GenBank Ensembl sequences.

[2] = test system: Yolk sac endothelial cells (YSECs); conditions: for rescue of tube formation in IBMX+NK-B treated cells: 100 ng/ml mouse VEGF164 or 30 ng/ml mouse bFGF
Procedure: (§1) Vascular network assembly was assessed by measuring the formation of capillary-like structures by endothelial cells on Matrigel (BD Biosciences, San Jose, Calif.). Matrigel was diluted 1:1 with supplement-free M200 medium, poured in 24-well plates, and allowed to solidify at 37° C. Subconfluent endothelial cells were harvested and preincubated under different experimental conditions (YSECs, 1 h; HUVECs, HAECs, and human microvascular endothelial cells (HMVECs), 2 h in supplement-free M200 medium in microfuge tubes. An equal volume of supplemented medium containing the indicated reagents was added. Cells were plated on Matrigel (1.5×10^5 cells/well) and incubated at 37° C. Vascular network assembly was measured as a function of time, and digital pictures were captured.

calreticulin in YSECs = assay: Calreticulin 2D gel electrophoresis and Western blot; format: cell-based, mouse; conditions: 2 μM ionomycin, 1 h, supplement-free M200 medium
Procedure: […] Cells were processed and proteins analyzed as described above in Example 2.
Cells were harvested, washed twice with ice-cold PBS, and lysed in lysis buffer containing 10 mM Tris (pH 7.4), 0.3% SDS, 100 μg/mL Ribonuclease A (Sigma), 200 μg/mL DNase I (Sigma), 20 μg/mL leupeptin (Sigma), 6 μg/mL E-64 (Sigma), 1 mM EDTA (Calbiochem), and 100 μg/mL benzamidine (Sigma). Cells were incubated on ice for 30 min, an equal volume of loading buffer containing 60 mM Tris (pH 6.8), 5% SDS, 10% glycerol was added, and samples were boiled for 5 min. 2D gel electrophoresis was conducted using pH 3.5-10 ampholines, and proteins were detected by Coomassie Blue staining. […]
The following antibodies were used for Western blots: Anti-phospho-FAK (Tyr-397) (Biosource, 44-624G); anti-FAK, anti-phospho-Akt (Ser 473), anti-Akt, anti-phospho-p44/42 MAP kinase (Thr 202/Tyr 204), anti-p44/42 MAP kinase antibodies (Cell Signaling Technology); anti-calreticulin (Upstate, 06-661); anti-α-tubulin (Calbiochem); anti Flt-1 (Santa Cruz Biotech, C-17); anti-Flk-1 (Cell Signaling Technologies, 2479). […] Extracts were resolved on SDS polyacrylamide gels, transferred to Immobilon P membranes (Millipore, Billerica, Mass.), and analyzed by Western blotting. Proteins were detected by chemiluminescence using ECL-Plus (Amersham Biosciences Piscataway, N.J.).

HUVECs = assay: Vascular network assembly assay on Matrigel; format: cell-based, human
Procedure: as §1

[3] = test system: human aortic endothelial cells (HAECs); assay: Vascular network assembly assay on Matrigel; format: cell-based; conditions: NK-B, U46619 (2 μM) or both, 2 h, 16 h on Matrigel
Procedure: as §1

YSECs [4] = assay: cAMP assay; format: cell-based, mouse; conditions: supplement-free M200 medium
Procedure: Cells were cultured in 6-well plates (2×10^5 cells/well), washed with supplement-free M200 medium and treated with indicated reagents at 37° C. The reactions were terminated by aspiration of the medium. Cells were washed with PBS and lysed in 500 μl of 0.1 N HCl containing 0.5% Triton X-100. cAMP was assayed in cell lysates (100 μl) using a direct cAMP enzyme-linked immunosorbent assay (Assay Designs, Inc., Ann Arbor, Mich.).

YSECs [5] = assay: Calcium imaging (Ca+2 oscillations); format: cell-based, mouse; conditions: YSECs on Matrigel, supplemented medium
Procedure: Cells were incubated for ˜30 min in 4 μM fluo-4/AM (Molecular Probes, Carlsbad, Calif.) in supplement-free M200 medium at 37° C., trypsinized, plated on Matrigel with indicated reagents, and allowed to adhere for 10 min. Time-lapse video microscopy with an Olympus AX70 laser scanning confocal microscope was used to measure intracellular Ca^+2 as described previously (Robles et al., 2003). An argon laser at 488 nm was used to excite Fluo-4, and the emitted light was detected at wavelengths>510 nm. Images were acquired at 15 s intervals and analyzed using Image J (Image Processing and Analysis in JAVA, Nat'l Inst. Health). When indicated, the fluorescence intensity in the region of interest (F) was normalized by dividing the Ca+2 signal by the fluorescence intensity of the resting cell at time 0 (F0).

[6] = test system: chorioallantoic membrane (CAM); assay: Chick chorioallantoic membrane assay; format: in vivo, chicken; conditions: L733060 5 μM, SB222200 2 μM, alone or combined; day 7 embryos, 48 h
Procedure: Fertilized chicken eggs were incubated at 39° C. with 90% humidity. On embryonic day 7, a small hole was drilled at the end of the egg that contains the air sac to lower the embryo. A second hole was made above the chorioallantoic membrane (CAM), and 100 μl of a 1.5% solution of methylcellulose (Stem Cell Technologies, Vancouver, BC) containing either FGF2 (500 ng) or VEGF (200 ng) and vehicle, IBMX (100 μg), NK-B (40 μg)/IBMX, or mutant NK-B (40 μg)/IBMX were applied to the CAM. A solution of penicillin/streptomycin was added, and the eggs were sealed with transparent tape. Vasculature was analyzed after 48 h, and digital images were captured at 40× magnification.

Molecule: VEGF
- rescue of Flt-1 and Flk-1 expression and cell signaling [1]: rescues Flt-1 and Flk-1 expression and cell signaling
- rescue of tube formation in IBMX+NK-B treated cells [2]: can form capillary-like tubes but in a slower kinetics

Molecule: C[C@H](CCC(=O)O)C[C@H](C)C[C@H](C)C(=O)/C=C(\O)[C@H](C)C[C@H](C)C/C=C/[C@@H](C)[C@@H](O)[C@@H](C)[C@@H](O)C[C@@H]1CC[C@@](C)([C@H]2CC[C@@](C)([C@@H](C)O)O2)O1 [ionomycin]
- calreticulin/alpha-tubulin ratio increase (calreticulin in YSECs): ~2 fold

Molecule: CC(C)Cn1c(=O)n(C)c(=O)c2[nH]cnc21 [IBMX, 3-Isobutyl-1-methylxanthine]
- vascular network assembly (capillary like tube formation) ([2]; 250 μM IBMX, 10 μM forskolin, 100 μM NK-B, 20 h, 3 experiments): has little effect on vascular network assembly

Molecule: FGF2: fibroblast growth factor-2 (bovine FGF2 from R & D systems; also called mouse FGF2/bFGF)
- rescue of Flt-1 and Flk-1 expression and cell signaling [1]: but not FGF2, rescues Flt-1 and Flk-1 expression and cell signaling
- FGFR1 transcription ([1]; YSECs, 100 ng/ml FGF2 with or without NK-B): increased
- rescue of tube formation in IBMX+NK-B treated cells [2]: but not bFGF Rescues the NK-B Effect

Molecule: CCCCC[C@H](O)/C=C/[C@@H]1[C@@H](C/C=C\CCCC(=O)O)[C@H]2CO[C@@H]1C2 [U46619]
- vascular network assembly (HUVECs; NK-B, U46619 (2 μM) or both, 2 h, 16 h on Matrigel): had little effect
- vascular network assembly [3]: had little effect
- cAMP (YSECs [4]): decrease the amount of cAMP
- Ca+2 oscillations (YSECs [5]): decreasing the amount of Ca^2+ oscillations
- vascular network assembly ([2]; NK-B, U46619 (2 μM) or both, 1 h, 16 h on Matrigel): had little effect

Molecule: CC[C@H](NC(=O)c1c(C)c(-c2ccccc2)nc2ccccc12)c1ccccc1 [SB222200, (S)-3 methyl-2-phenyl-N-(1-phenylpropyl)-4-quinilinecarboxamide]
- microvessel density of CAM [6]: much higher

Molecule: Cl.FC(F)(F)c1cc(CO[C@H]2CCCN[C@H]2c2ccccc2)cc(C(F)(F)F)c1 [L733060]
- microvessel density of CAM [6]: much higher

B1: calreticulin: E. coli overexpressed and purified recombinant calreticulin, anti-angiogenic protein (protein, UniProt P27797 18-417, looked up)
Calreticulin: EPAVYFKEQFLDGDGWTSRWIESKHKSDFGKFVLSSGKFYGDEEKDKGLQTSQDARFYALSASFEPFSNKGQTLVVQFTVKHEQNIDCGGGYVKLFPNSLDQTDMHGDSEYNIMFGPDICGPGTKKVHVIFNYKGKNVLINKDIRCKDDEFTHLYTLIVRPDNTYEVKIDNSQVESGSLEDDWDFLPPKKIKDPDASKPEDWDERAKIDDPTDSKPEDWDKPEHIPDPDAKKPEDWDEEMDGEWEPPVIQNPEYKGEWKPRQIDNPDYKGTWIHPEIDNPEYSPDPSIYAYDNFGVLGLDLWQVKSGTIFDNFLITNDEAYAEEFGNETWGVTKAAEKQMKDKQDEEQRLKEEEEDKKRKEEEEAEDKEDDEDKDEDEEDEEDKEEDEEEDVPGQAKDEL
- vascular network assembly (HUVECs; calreticulin 13 μg/ml, vasostatin 5 μg/ml, 1 h): inhibit YSEC and HUVEC vascular network assembly
- Flt-1 and Flk-1 transcription ([1]; YSECs, forskolin (10 μM)/IBMX, calreticulin (13 μg/ml), vasostatin (5 μg/ml), 1, 2 or 5 h on Matrigel): failed to affect Flt-1 and Flk-1 transcription
